# Data as given in US20240208964A1, “PYRIDOPYRIMIDINES AND METHODS OF THEIR USE” (PYRIDOPYRIMIDINES AND METHODS OF THEIR USE, priority 2020, published 2024).
# Assays:
# [1] = system: FAB1 TDP-43 yeast strain; experiment: Propidium iodide viability assay in FAB1 TDP-43 control yeast strain; assay type: cell-based; details: for FAB1 TDP-43 (active/inactive): FAB1 TDP-43 yeast model
# Description: (§1) Generation of TDP-43 yeast model expressing human PIKfyve. Human PIKFYVE (“entry clone”) was cloned into pAG416GPDccdB (“destination vector”) according to standard Gateway cloning protocols (Invitrogen, Life Technologies). The resulting pAG416GPD-PIKFYVE plasmids were amplified in E. coli and plasmid identity confirmed by restriction digest and Sanger sequencing. Lithium acetate/polyethylene glycol-based transformation was used to introduce the above PIKFYVE plasmid into a BY4741 yeast strain auxotrophic for the ura3 gene and deleted for two transcription factors that regulate the xenobiotic efflux pumps, a major efflux pump, and FAB1, the yeast ortholog of PIKFYVE (MATa, snq2::KILeu2; pdr3::Klura3;pdrl::NATMX; fab1::G418^R, his3;leu2;ura3;met15;LYS2+) (FIG. 2). Transformed yeast were plated on solid agar plates with complete synthetic media lacking uracil (CSM-ura) and containing 2% glucose. Individual colonies harboring the control or PIKFYVE TDP-43 plasmids were recovered. A plasmid containing wild-type TDP-43 under the transcriptional control of the GAL1 promoter and containing the hygromycin-resistance gene as a selectable marker was transformed into the fab1::G418^R pAG416GPD-PIKFYVE yeast strain (FIG. 1). Transformed yeast were plated on CSM-ura containing 2% glucose and 200 μg/mL […] after overnight recovery in media lacking antibiotic. Multiple independent isolates were further evaluated for cytotoxicity and TDP-43 expression levels.
# (§2) Viability Assay. A control yeast strain with the wild-type yeast FAB1 gene and TDP-43 (“FAB1 TDP-43”, carries empty pAG416 plasmid), and the “PIKFYVE TDP-43” yeast strain, were assessed for toxicity using a propidium iodide viability assay. Both yeast strains were transferred from solid CSM-ura/2% glucose agar plates into 3 mL of liquid CSM-ura/2% glucose media for 6-8 hours at 30° C. with aeration. Yeast cultures were then diluted to an optical density at 600 nm wavelength (OD600) of 0.005 in 3 mL of CSM-ura/2% raffinose and grown overnight at 30° C. with aeration to an OD600 of 0.3-0.8. Log-phase overnight cultures were diluted to OD600 of 0.005 in CSM-ura containing either 2% raffinose or galactose and 150 μL dispensed into each well of a flat bottom 96-well plates. Compounds formulated in 100% dimethyl sulfoxide (DMSO) were serially diluted in DMSO and 1.5 μL diluted compound transferred to the 96-well plates using a multichannel pipet. Wells containing DMSO alone were also evaluated as controls for compound effects. Tested concentrations ranged from 15 μM to 0.11 μM. Cultures were immediately mixed to ensure compound distribution and covered plates incubated at 30° C. for 24 hours in a stationary, humified incubator.
# (§3) Upon the completion of incubation, cultures were assayed for viability using propidium iodide (PI) to stain for dead/dying cells. A working solution of PI was made where, for each plate, 1 μL of 10 mM PI was added to 10 mL of CSM-ura (raffinose or galactose). The final PI solution (50 μL/well) was dispensed into each well of a new round bottom 96-well plate. The overnight 96-well assay plate was then mixed with a multichannel pipet and 50 μL transferred to the PI-containing plate. This plate was then incubated for 30 minutes at 30° C. in the dark. A benchtop flow cytometer (Miltenyi MACSquant) was then used to assess red fluorescence (B2 channel), forward scatter, and side scatter (with following settings: gentle mix, high flow rate, fast measurement, 10,000 events). Intensity histograms were then gated for “PI-positive” or “PI-negative” using the raffinose and galactose cultures treated with DMSO as controls. The DMSO controls for raffinose or galactose-containing cultures were used to determine the window of increased cell death and this difference set to 100. All compounds were similarly gated and then compared to this maximal window to establish the percent reduction in PI-positive cells.
# [2] = system: PIKFYVE TDP-43 yeast strain; experiment: Propidium iodide viability assay in PIKFYVE TDP-43 yeast strain; assay type: cell-based; details: for PIKfyve TDP-43 (active/inactive): PIKFYVE TDP-43 yeast model
# Description: as §1, §2, §3
Compound,FAB1 TDP-43 (active/inactive) [1],PIKfyve TDP-43 (active/inactive) [2],"viable cells in FAB1 TDP-43 ([1]; range of compound concentrations (only 0.23 μM is shown), FIG. 5)","propidium iodide-positive dead cells in PIKFYVE TDP-43 ([2]; 0.23 μM, FIG. 6)"
N#Cc1cc(N2CCOCC2)n2nc(-c3ccncc3)cc2n1,Inactive,Inactive,–,–
"Cc1cccc(/C=N/Nc2cc(N3CCOCC3)n3nc(-c4ccncc4)cc3n2)c1 [APY0201, reference compound]",–,–,no increase in viable cells,reduced the population of propidium iodide-positive dead cells
CN(C)c1cc(N2CCOCC2)n2nc(-c3ccncc3)cc2n1,Inactive,Inactive,–,–
Cc1cccc(/C=N/Nc2cc(N3CC4CC3CO4)n3nc(-c4ccncc4)cc3n2)c1 (centres unmarked),Inactive,Active,–,–
Cc1cccc(/C=N/Nc2cc(N3CCOCC3)n3nc(-c4ccncc4)cc3n2)c1 [drawing 292],Inactive,Active,–,–
Cc1cccc(/C=N/Nc2nc(N3CCOCC3)c3nc(-c4ccncc4)n(C)c3n2)c1 [drawing 294],Inactive,Active,–,–
Cn1c(-c2ccncc2)nc2c(N3CCOCC3)ncnc21,Inactive,Inactive,–,–
